The data set deals with Dkk1-LRP5-TCF-Luciferase. Description: Functional Dkk1-LRP5-TCF-Luciferase Assay in U2OS Cells. As to conditions: for fold induction at 2 µM / fold induction at 20 µM / EC50: Homo sapiens, U2OS; for fold induction at 2 µM: read-out: B = TCF ACTIVITY/DMSO CONTROL Fold induction @ 2.0 uM, 2.0 uM compound; for fold induction at 20 µM: read-out: C = TCF ACTIVITY/DMSO CONTROL Fold induction @ 20.0 uM, 20.0 uM compound; for A = MAX FOLD Induction/DMSO CONTROL: maximum fold induction over DMSO control.

For `CCNC(=O)N1CCC(CNc2nccc(-c3ccc4ccccc4c3)n2)CC1` [N-ethyl-4-({[4-(2-naphthyl)pyrimidin-2-yl]amino}methyl)piperidine-1-carboxamide], the fold induction at 2 µM was found to be 1.35 and the fold induction at 20 µM came out at 1.3.
As usually defined, the EC50 is the midpoint of the concentration-response curve. A higher EC50 goes with a less potent agent. On to `CCNC(=O)N1CCCN(c2nccc(-c3ccc4ccccc4c3)n2)CC1` [N-ethyl-4-[4-(2-naphthyl)pyrimidin-2-yl]-1,4-diazepane-1-carboxamide], for which the concentration for a half-maximal effect (EC50) worked out at 12.7 µM, the fold induction at 20 µM was determined as 2.58 and the “A = MAX FOLD Induction/DMSO CONTROL” value is on record as 1.640 fold.
Consider `CCNC(=O)N1CCC(Nc2nccc(-c3ccc4ccccc4c3)n2)CC1` [N-ethyl-4-{[4-(2-naphthyl)pyrimidin-2-yl]amino}piperidine-1-carboxamide], for which the concentration giving a half-maximal response (EC50) came to 18.2 µM, the fold induction at 2 µM worked out at 1.14, the fold induction at 20 µM was 1.6 and the “A = MAX FOLD Induction/DMSO CONTROL” value came out at 2.280 fold.
Turning to `CCNC(=O)N1CCC(N(C)c2nccc(-c3ccc4ccccc4c3)n2)CC1` [N-ethyl-4-{methyl[4-(2-naphthyl)pyrimidin-2-yl]amino}piperidine-1-carboxamide], the fold induction at 2 µM worked out at 1.2 and the fold induction at 20 µM was 1.45.
`CCN(C)CCN(C)[C@@H]1CCN(c2nccc(-c3ccc4ccccc4c3)n2)C1` [N-ethyl-N,N′-dimethyl-N′-{(3R)-1-[4-(2-naphthyl)pyrimidin-2-yl]pyrrolidin-3-yl}ethane-1,2-diamine]: the fold induction at 2 µM worked out at 1.8.
On to `CCN(CCO)C(=O)[C@@H]1CCCN1c1nccc(-c2ccc3ccccc3c2)n1` [N-ethyl-N-(2-hydroxyethyl)-1-[4-(2-naphthyl)pyrimidin-2-yl]-L-prolinamide], for which the fold induction at 2 µM came out at 1.03 and the fold induction at 20 µM is 1.63.
On to `CCN(CC)CC1CCN(c2nccc(-c3ccc4ccccc4c3)n2)CC1` [N-ethyl-N-({1-[4-(2-naphthyl)pyrimidin-2-yl]piperidin-4-yl}methyl)ethanamine], for which the fold induction at 2 µM amounted to 1.14 and the fold induction at 20 µM stood at 0.02.
In the case of `CCN(CC)CC1CCN(c2nccc(-c3ccc4ccccc4c3)n2)C1` (stereo not drawn) [N-ethyl-N-({1-[4-(2-naphthyl)pyrimidin-2-yl]pyrrolidin-3-yl}methyl)ethanamine], the fold induction at 2 µM is 1.58.
For `CCNC(=O)NCCC1CCN(c2nccc(-c3ccc4ccccc4c3)n2)CC1` [N-ethyl-N′-(2-{1-[4-(2-naphthyl)pyrimidin-2-yl]piperidin-4-yl}ethyl)urea], the fold induction at 2 µM was 1.78 and the fold induction at 20 µM was found to be 1.87.
For `CCNC(=O)NCCN1CCN(c2nccc(-c3ccc4ccccc4c3)n2)CC1` [N-ethyl-N′-(2-{4-[4-(2-naphthyl)pyrimidin-2-yl]piperazin-1-yl}ethyl)urea] the same measures were 1.09 and 0.28.
Consider `CCNC(=O)N[C@H]1CC[C@H](Nc2nccc(-c3ccc4ccccc4c3)n2)CC1` [N-ethyl-N′-(trans-4-{[4-(2-naphthyl)pyrimidin-2-yl]amino}cyclohexyl)urea], for which the fold induction at 2 µM was 2.84, the fold induction at 20 µM was 2.35 and the “A = MAX FOLD Induction/DMSO CONTROL” value came out at 2.740 fold.
Take `CCNC(=O)NCC1CN(c2nccc(-c3ccc4ccccc4c3)n2)C1` [N-ethyl-N′-({1-[4-(2-naphthyl)pyrimidin-2-yl]azetidin-3-yl}methyl)urea]: the fold induction at 20 µM is 1.06.
With `CCNC(=O)NCC1CCN(c2nccc(-c3ccc4ccccc4c3)n2)CC1` [N-ethyl-N′-({1-[4-(2-naphthyl)pyrimidin-2-yl]piperidin-4-yl}methyl)urea], the fold induction at 2 µM turned out to be 1.7 and the fold induction at 20 µM came to 1.34.
For `CCNC(=O)NCC1CCN(c2nccc(-c3ccc4ccccc4c3)n2)C1` (stereo not drawn) [N-ethyl-N′-({1-[4-(2-naphthyl)pyrimidin-2-yl]pyrrolidin-3-yl}methyl)urea] the same measures were 0.93 and 1.2.
Regarding `CCNC(=O)NC1CCCN(c2nccc(-c3ccc4ccccc4c3)n2)CC1` (stereo not drawn) [N-ethyl-N′-{1-[4-(2-naphthyl)pyrimidin-2-yl]azepan-4-yl}urea], the fold induction at 2 µM was 2.33, the fold induction at 20 µM came to 2.56 and the “A = MAX FOLD Induction/DMSO CONTROL” value was 1.320 fold.
Take `CCNC(=O)N[C@H]1CCN(c2nccc(-c3ccc4ccccc4c3)n2)C1` [N-ethyl-N′-{(3S)-1-[4-(2-naphthyl)pyrimidin-2-yl]pyrrolidin-3-yl}urea]: the fold induction at 2 µM is 1.03 and the fold induction at 20 µM came to 0.6.
For the compound `CC(C)CNc1nccc(-c2ccc3ccccc3c2)n1` [N-isobutyl-4-(2-naphthyl)pyrimidin-2-amine], the fold induction at 2 µM was 1.77.
For the compound `CC(C)Nc1nccc(-c2ccc3ccccc3c2)n1` [N-isopropyl-4-(2-naphthyl)pyrimidin-2-amine], the fold induction at 2 µM was determined as 1.64.
For the compound `CC(C)NC(=O)N1CCC(CNc2nccc(-c3ccc4ccccc4c3)n2)CC1` [N-isopropyl-4-({[4-(2-naphthyl)pyrimidin-2-yl]amino}methyl)piperidine-1-carboxamide], the fold induction at 2 µM was 1.31 and the fold induction at 20 µM came out at 0.54.
For `CC(C)NC(=O)N1CCC(Nc2nccc(-c3ccc4ccccc4c3)n2)CC1` [N-isopropyl-4-{[4-(2-naphthyl)pyrimidin-2-yl]amino}piperidine-1-carboxamide] the same measures were 1.07 and 1.37.
As to `CC(C)N(C)CCN(C)[C@@H]1CCN(c2nccc(-c3ccc4ccccc4c3)n2)C1` [N-isopropyl-N,N′-dimethyl-N′-{(3R)-1-[4-(2-naphthyl)pyrimidin-2-yl]pyrrolidin-3-yl}ethane-1,2-diamine], the fold induction at 2 µM is 2.2.
For the compound `CC(C)NC(=O)NCCC1CCN(c2nccc(-c3ccc4ccccc4c3)n2)CC1` [N-isopropyl-N′-(2-{1-[4-(2-naphthyl)pyrimidin-2-yl]piperidin-4-yl}ethyl)urea], the fold induction at 2 µM was 1.46 and the fold induction at 20 µM was found to be 1.58.
For `CC(C)NC(=O)NCCN1CCN(c2nccc(-c3ccc4ccccc4c3)n2)CC1` [N-isopropyl-N′-(2-{4-[4-(2-naphthyl)pyrimidin-2-yl]piperazin-1-yl}ethyl)urea], the fold induction at 2 µM stood at 1.06 and the fold induction at 20 µM amounted to 0.1.
For `CC(C)NC(=O)N[C@@H]1CCN(c2nccc(-c3ccc4ccccc4c3)n2)C1` [N-isopropyl-N′-{(3R)-1-[4-(2-naphthyl)pyrimidin-2-yl]pyrrolidin-3-yl}urea] the same measures were 1.19 and 1.09.
Consider `CC(C)NC(=O)N[C@H]1CCN(c2nccc(-c3ccc4ccccc4c3)n2)C1` [N-isopropyl-N′-{(3S)-1-[4-(2-naphthyl)pyrimidin-2-yl]pyrrolidin-3-yl}urea], for which the fold induction at 2 µM was determined as 1.12 and the fold induction at 20 µM turned out to be 0.79.
For `CNC(=O)[C@H]1CCCN1c1nccc(-c2ccc3ccccc3c2)n1` [N-methyl-1-[4-(2-naphthyl)pyrimidin-2-yl]-D-prolinamide] the same measures were 1.13 and 1.32.
Turning to `CNCC1CCN(c2nccc(-c3ccc4ccccc4c3)n2)CC1` [N-methyl-1-{1-[4-(2-naphthyl)pyrimidin-2-yl]piperidin-4-yl}methanamine], the fold induction at 2 µM is 1.49, the fold induction at 20 µM worked out at 0.01 and the “A = MAX FOLD Induction/DMSO CONTROL” value is 2.840 fold.

(Values after US20090054392A1, “NAPHTHYLPYRIMIDINE, NAPHTHYLPYRAZINE AND NAPHTHYLPYRIDAZINE ANALOGS AND THEIR USE AS AGONISTS OF THE WNT-BETA-CATENIN CELLULAR MESSAGING SYSTEM” (Wyeth, priority 2007, published 2009).)
